# From patent publication US20230416329A1, “A PEPTIDE WITH DISULFIDE BONDS AND INHIBITORY ACTIVITY AGAINST SERINE PROTEASES, DERIVED HYBRID PEPTIDES THEREOF, AND USES THEREOF” (INSTITUTE OF MATERIA MEDICA , CHINESE ACADEMY OF MEDICAL …, priority 2020, published 2023)
# Bridge positions count the residues as written; N and C are the ends. Ends that are not written are not given here.
# What was measured:
# [1] = biological target: DPP-IV (Homo sapiens, UniProt P27487); experiment: Tolerance of GLP-1 and its analogues to DPP-IV (RP-HPLC remaining peak area); assay type: in vitro ADME; details: peptide 25 μM, DPP-IV 0.5 ng/μL, 37° C.
# Sequence of DPP-IV (P27487 whole entry, species assumed): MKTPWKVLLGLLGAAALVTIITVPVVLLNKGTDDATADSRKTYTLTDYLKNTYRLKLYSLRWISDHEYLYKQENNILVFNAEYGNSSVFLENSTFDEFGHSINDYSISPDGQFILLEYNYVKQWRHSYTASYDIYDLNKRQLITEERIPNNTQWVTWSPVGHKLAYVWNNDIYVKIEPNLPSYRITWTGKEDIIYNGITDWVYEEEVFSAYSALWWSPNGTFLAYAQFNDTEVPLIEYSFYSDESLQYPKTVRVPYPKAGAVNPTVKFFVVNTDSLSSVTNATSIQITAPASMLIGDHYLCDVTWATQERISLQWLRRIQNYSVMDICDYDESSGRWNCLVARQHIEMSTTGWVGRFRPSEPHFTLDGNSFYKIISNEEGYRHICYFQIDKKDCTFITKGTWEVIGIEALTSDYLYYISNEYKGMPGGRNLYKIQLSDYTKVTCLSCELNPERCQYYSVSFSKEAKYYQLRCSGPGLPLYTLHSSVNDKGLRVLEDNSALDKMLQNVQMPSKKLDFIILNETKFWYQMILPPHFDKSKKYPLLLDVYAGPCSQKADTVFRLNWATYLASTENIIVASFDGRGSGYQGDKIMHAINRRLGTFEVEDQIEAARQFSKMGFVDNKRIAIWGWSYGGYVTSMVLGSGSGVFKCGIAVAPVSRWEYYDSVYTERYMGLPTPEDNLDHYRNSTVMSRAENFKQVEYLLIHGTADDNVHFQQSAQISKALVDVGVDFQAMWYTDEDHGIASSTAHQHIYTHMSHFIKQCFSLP
# Procedure: (§1) Mix by centrifugation at 8000 rpm for 30 seconds.
# (2) Arrange a certain volume of 0.005 μg/μL DPP-IV solution in another sterile EP.
# [2] = biological target: elastase (Sus scrofa, UniProt P00772); experiment: in vitro
# Sequence of elastase (P00772 27-266): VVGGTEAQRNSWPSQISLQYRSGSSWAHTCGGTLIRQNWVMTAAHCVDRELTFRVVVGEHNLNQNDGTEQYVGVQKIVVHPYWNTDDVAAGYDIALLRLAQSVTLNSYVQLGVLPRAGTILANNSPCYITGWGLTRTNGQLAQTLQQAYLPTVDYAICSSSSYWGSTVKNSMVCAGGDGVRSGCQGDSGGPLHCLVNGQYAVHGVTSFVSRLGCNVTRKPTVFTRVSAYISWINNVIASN
# Procedure: FIG. 19. […] At different time point, 25 μL aliquots was taken out, and 10% (v/v) TFA was added to terminate the reaction.
# as §1
# Arrange a certain volume of 0.5 μg/μL elastase solution in another sterile EP. Incubate the EP tubes containing peptides and enzymes at 37° C. for 5 min, and then add 4.5 μL of elastase solution to each EP tube containing peptides and mix well. Start timing and remove 25 μL of reaction solution at 1.5, 3.0, 4.5, 6.0, 9.0, 15.0, 30.0, and 60.0 min later, respectively. Add 3.75 μL of 10% TFA to terminate the reaction and mix well by centrifugation at 8000 rpm for 30 seconds.
# Referring to the experimental method in Example 5, in vitro stability of salmon Calcitonin analogs with oral administration activity to the enzymatic hydrolysis by trypsin, chymotrypsin and elastase were performed.
# Referring to the experimental method in Example 5, in vitro stability of IL-17A inhibitory peptides towards the enzymatic hydrolysis by trypsin, chymotrypsin and elastase were performed.
# [3] = Stability of GLP-1 and its analogues in human serum; details: 25% (v/v) human serum
# [4] = biological target: NEP24.11 (Homo sapiens, UniProt P08473); experiment: Tolerance of GLP-1 and its analogues to NEP24.11 (RP-HPLC remaining peak area); assay type: in vitro ADME; details: after 8 hours
# Sequence of NEP24.11 (P08473 whole entry): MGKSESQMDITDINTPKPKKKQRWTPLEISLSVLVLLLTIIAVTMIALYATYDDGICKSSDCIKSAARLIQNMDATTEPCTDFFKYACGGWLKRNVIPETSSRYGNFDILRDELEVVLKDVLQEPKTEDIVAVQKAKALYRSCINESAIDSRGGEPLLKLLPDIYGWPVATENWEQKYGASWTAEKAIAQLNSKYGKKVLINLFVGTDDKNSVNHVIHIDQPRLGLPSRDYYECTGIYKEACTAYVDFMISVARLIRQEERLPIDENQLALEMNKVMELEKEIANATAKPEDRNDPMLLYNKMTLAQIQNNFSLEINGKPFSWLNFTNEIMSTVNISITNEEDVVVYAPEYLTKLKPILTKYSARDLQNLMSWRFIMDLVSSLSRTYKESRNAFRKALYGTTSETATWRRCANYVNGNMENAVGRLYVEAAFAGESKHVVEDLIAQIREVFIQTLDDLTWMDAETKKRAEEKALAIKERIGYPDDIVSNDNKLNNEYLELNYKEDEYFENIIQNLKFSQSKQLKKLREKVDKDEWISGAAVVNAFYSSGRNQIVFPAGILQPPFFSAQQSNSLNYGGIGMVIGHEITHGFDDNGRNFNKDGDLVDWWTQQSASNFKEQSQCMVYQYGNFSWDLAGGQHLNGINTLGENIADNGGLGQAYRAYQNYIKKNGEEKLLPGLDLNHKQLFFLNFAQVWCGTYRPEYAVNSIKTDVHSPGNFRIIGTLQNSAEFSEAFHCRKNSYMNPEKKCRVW
# Procedure: as §1
# Arrange a certain volume of 0.04 μg/μL NEP24.11 enzyme solution in another sterile EP.
# [5] = biological target: chymotrypsin (Bos taurus, UniProt P00766); experiment: Stability of hybrid peptides (GLP-1, PCSK9, calcitonin, 17A analogues) against chymotrypsin hydrolysis (RP-HPLC remaining peak area)
# Outline: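 RP-HPLC peak area tracked intact peptide after 37 °C digestion with chymotrypsin (0.05 μg/μL solution, 5 min preincubation). Samples were withdrawn at 1.5-60.0 min and stopped with 10% TFA.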
# [6] = biological target: T1, interaction of PCSK9-LDLR (Homo sapiens, UniProt Q8NBP7); experiment: PCSK9-LDLR in vitro binding assay (inhibitory rate); details: for inhibitory activity on the interaction between PCSK9 and LDLR (in words): in vitro
# T1 construct: purchased MBL Company, Beijing, China CY-8150
# Procedure: Polypeptide PCSK9_1-14 (SEQ ID NOs: 210-223) is dissolved in pure water or DMSO. 85 μL reaction buffer, 5 μL 1 mM polypeptide sample and 10 μL 750 ng/mL PCSK9 protein was pre-incubated at room temperature for 20 minutes before being added to a 96 well plate. The OD450/540 nm value was measured according to the instructions of the PCSK9-LDLR in Vitro Binding Assay Kit (CY-8150, MBL Company, Beijing, China). Solvent control: replace polypeptide with 5 μL solvent. In 100 μL reaction system, the final concentration of the polypeptide and PCSK9 is 50 μM and 75 ng/mL, respectively.
# Inhibition rate of polypeptide (%)=(OD450/540 nm(solvent control)−OD450/540 nm (sample))/OD450/540 nm(solvent control)×100
# [7] = tested on: P407-induced hyperlipidemia mice; experiment: Subcutaneous injection of PCSK9 inhibitory peptide, serum total cholesterol in P407-induced hyperlipidemia mice; assay type: in vivo, mouse; details: serum, subcutaneous 2 μmol/kg, mean ± sd; for TC 15 min: 15 min after administration; for TC 30 min: 30 min after administration; for TC 60 min: 60 min after administration; for TC 90 min: 90 min after administration
# Procedure: The experimental peptide sample was prepared using PEG400 with a final concentration of […], and the final concentration of PEG400 is 20% (w/v). Normal ICR mice were fasted overnight with water ad libitum. The next day, all of the mice were randomly divided into model control group (Con) and polypeptide administration group (2 μmol/kg) according to body weight. Then, all of the mice were intraperitoneally injected with P407 (500 mg/kg) and fed with feed 2 hours later. Six mice were taken as a normal control group (Nor). After 24 hours, the mice in Con were subcutaneously injected with saline containing 20% PEG400, and the mice in the treatment group were given peptides. Then, the blood was taken at different time points after administration to determine the serum total cholesterol (TC) level. In consideration of the complexity of factors affecting serum LDL-C levels, especially the differences between single and long-term administration, the in vivo activity of PCSK9 inhibitory peptide is mainly observed for changes in serum TC levels.
# [8] = isolated enzyme elastase, pH 8, Remaining peak area (%)/elastase
compound,measurement,setting,value
CC[C@H](C)[C@H](NC(=O)[C@H](Cc1ccccc1)NC(=O)[C@H](CCC(=O)O)NC(=O)[C@H](CCCCN)NC(=O)[C@H](C)NC(=O)[C@H](C)NC(=O)[C@H](CCC(N)=O)NC(=O)CNC(=O)[C@H](CCC(=O)O)NC(=O)[C@H](CC(C)C)NC(=O)[C@H](Cc1ccc(O)cc1)NC(=O)[C@H](CO)NC(=O)[C@H](CO)NC(=O)[C@@H](NC(=O)[C@H](CC(=O)O)NC(=O)[C@H](CO)NC(=O)[C@@H](NC(=O)[C@H](Cc1ccccc1)NC(=O)[C@@H](NC(=O)CNC(=O)[C@H](CCC(=O)O)NC(=O)[C@H](C)NC(=O)[C@H](Cc1c[nH]cn1)NC(=O)CNC(=O)CNC(=O)[C@@H](NC(=O)[C@@H]1CCCN1C(=O)[C@@H](NC(=O)CNC(=O)CNC(=O)[C@H](Cc1ccc(O)cc1)NC(=O)[C@@H]1CSSC[C@H](NC(=O)[C@@H](N)CC(C)C)C(=O)N[C@@H]([C@@H](C)O)C(=O)N[C@@H](C)C(=O)N[C@@H](CO)C(=O)N[C@@H]([C@@H](C)CC)C(=O)N2CCC[C@H]2C(=O)N2CCC[C@H]2C(=O)N[C@@H](CCC(N)=O)C(=O)N1)[C@@H](C)CC)[C@@H](C)CC)[C@@H](C)O)[C@@H](C)O)C(C)C)C(=O)N[C@@H](C)C(=O)N[C@@H](Cc1c[nH]c2ccccc12)C(=O)N[C@@H](CC(C)C)C(=O)N[C@H](C(=O)N[C@@H](CCCCN)C(=O)NCC(=O)N[C@@H](CCCNC(=N)N)C(=O)NCC(=O)NCC(=O)N[C@@H](CCCCN)C(=O)O)C(C)C [EC1-D-GLP-1],Remaining peak area (%)/DPP-IV,[1]; 0.0 h,100.0 ± 0.0%
same,"remaining at 0.5 h, 25 μM","[1]; isolated DPP-IV enzyme in buffer, pH 8, 0.5 h",101 ± 1.7%
same,"remaining at 2 h, 25 μM","[1]; isolated DPP-IV enzyme in buffer, pH 8, 2.0 h",99.6 ± 0.6%
same,"remaining at 4 h, 25 μM","[1]; isolated DPP-IV enzyme in buffer, pH 8, 4.0 h",104.5 ± 0.3%
same,"remaining at 8 h, 25 μM","[1]; isolated DPP-IV enzyme in buffer, pH 8, 8.0 h",97.4 ± 4.2%
same,"remaining at 12 h, 25 μM","[1]; isolated DPP-IV enzyme in buffer, pH 8, 12.0 h",93.6 ± 4.9%
same,Remaining peak area (%)/elastase,"[2]; isolated enzyme elastase, 1 h, 60 μM, pH 8",24.2 ± 0.6%
same,"remaining at 0.025 h, 60 μM",[2]; [8],86 ± 5.4%
same,"remaining at 0.05 h, 60 μM",[2]; [8],81.9 ± 3.9%
same,"remaining at 0.075 h, 60 μM",[2]; [8],80.3 ± 2%
same,"remaining at 0.1 h, 60 μM",[2]; [8],80.1 ± 3.4%
same,"remaining at 0.15 h, 60 μM",[2]; [8],76.2 ± 1.6%
same,"remaining at 0.25 h, 60 μM",[2]; [8],70.4 ± 4.5%
same,"remaining at 0.5 h, 60 μM",[2]; [8],40.9 ± 1.1%
same,"remaining at 1 h, 60 μM",[2]; [8],~20%
same,Remaining peak area (%)/human serum,"[3]; 0.0 h, peptide 0.03 mM, 37° C.",100.0 ± 0.0%
same,"remaining at 0.5 h, 0.03 mM","[3]; human, pH 7",72.8 ± 0.8%
same,"remaining at 2 h, 0.03 mM","[3]; human, pH 7",40.8 ± 4.3%
same,"remaining at 4 h, 0.03 mM","[3]; human, pH 7",23.4 ± 1.9%
same,"remaining at 8 h, 0.03 mM","[3]; human, pH 7",11.7 ± 2%
same,"remaining at 12 h, 0.03 mM","[3]; human, pH 7",3.4 ± 0.4%
"CC[C@H](C)[C@H](NC(=O)[C@H](Cc1ccccc1)NC(=O)[C@H](CCC(=O)O)NC(=O)[C@H](CCCCN)NC(=O)[C@H](C)NC(=O)[C@H](C)NC(=O)[C@H](CCC(N)=O)NC(=O)CNC(=O)[C@H](CCC(=O)O)NC(=O)[C@H](CC(C)C)NC(=O)[C@H](Cc1ccc(O)cc1)NC(=O)[C@H](CO)NC(=O)[C@H](CO)NC(=O)[C@@H](NC(=O)[C@H](CC(=O)O)NC(=O)[C@H](CO)NC(=O)[C@@H](NC(=O)[C@H](Cc1ccccc1)NC(=O)[C@@H](NC(=O)CNC(=O)[C@H](CCC(=O)O)NC(=O)[C@H](C)NC(=O)[C@@H](N)Cc1c[nH]cn1)[C@@H](C)O)[C@@H](C)O)C(C)C)C(=O)N[C@@H](C)C(=O)N[C@@H](Cc1c[nH]c2ccccc12)C(=O)N[C@@H](CC(C)C)C(=O)N[C@H](C(=O)N[C@@H](CCCCN)C(=O)NCC(=O)N[C@@H](CCCN=C(N)N)C(=O)NCC(=O)O)C(C)C [GLP-1 (7-37), reference compound]",degradation by NEP24.11 (in words),[4],almost completely degraded
same,stability towards chymotrypsin hydrolysis (in words),[5],completely degraded
same,Remaining peak area (%)/elastase,"[2]; 30.0 min, peptide 60 μM, elastase 10 ng/μL, 37° C.",no GLP-1 prototype molecule was detected
CGRATKSIPPICFGTVFTSWEEALDWV (cysteine pairing not given here),inhibitory activity on the interaction between PCSK9 and LDLR (in words),[6],good inhibitory activity on the interaction between PCSK9 and LDLR
same,inhibitory activity on the interaction between PCSK9 and LDLR (in words),[6]; listed as SEQ ID NO: 212,good inhibitory effects in vitro
same,TC 15 min,[7],3466 ± 662 µg/mL
same,TC 30 min,[7],3490 ± 741 µg/mL
same,TC 60 min,[7],3294 ± 649 µg/mL
same,TC 90 min,[7],3265 ± 678 µg/mL
ICTASIPPICQGTVFTSWEEALDWV (cysteine pairing not given here),inhibitory activity on the interaction between PCSK9 and LDLR (in words),[6],good inhibitory activity on the interaction between PCSK9 and LDLR
same,inhibitory activity on the interaction between PCSK9 and LDLR (in words),[6]; listed as SEQ ID NO: 227,good inhibitory effects in vitro
same,TC 15 min,[7],2885 ± 769 µg/mL
same,TC 30 min,[7],2673 ± 724 µg/mL
same,TC 60 min,[7],2695 ± 699 µg/mL
same,TC 90 min,[7],2605 ± 759 µg/mL
PCSK9_8: Pep2-8 analogue containing the anti-trypsin peptide scaffold BT9 (Table 23) (TVFTSGCGRATKSIPPICFSWEEYLDWV; disulfide 7-18 (inferred)),inhibitory activity on the interaction between PCSK9 and LDLR (in words),[6],good inhibitory activity on the interaction between PCSK9 and LDLR
same,inhibitory activity on the interaction between PCSK9 and LDLR (in words),[6]; listed as SEQ ID NO: 217,good inhibitory effects in vitro
same,TC 15 min,[7],2269 ± 489 µg/mL
same,TC 30 min,[7],2216 ± 465 µg/mL
same,TC 60 min,[7],2074 ± 470 µg/mL
same,TC 90 min,[7],2037 ± 509 µg/mL
PCSK9_13: Pep2-8 analogue of Table 23 (GTNEALDNNCGRATKSIPPICFTVFTS; disulfide 10-21 (inferred)),Inhibitory rate on the interaction of PCSK9-LDLR,"[6]; sample 50 μM, PCSK9 75 ng/mL",15.8 ± 10.1%
Phe-Cys-Thr-Tyr-Ser-Ile-Pro-Pro-Gln-Cys-Tyr-Gly-Gly-Thr-Val-Phe-Thr-Ser-Trp-Glu-Glu-Ala-Leu-Asp-Trp-Val (FCTYSIPPQCYGGTVFTSWEEALDWV; disulfide 2-10 (inferred)) [PCSK9_3CH],inhibitory activity on the interaction between PCSK9 and LDLR (in words),[6],good inhibitory activity on the interaction between PCSK9 and LDLR
same,inhibitory activity on the interaction between PCSK9 and LDLR (in words),[6]; listed as SEQ ID NO: 226,good inhibitory effects in vitro
same,TC 15 min,[7],3509 ± 1031 µg/mL
same,TC 30 min,[7],3828 ± 774 µg/mL
same,TC 60 min,[7],3930 ± 1509 µg/mL
same,TC 90 min,[7],3435 ± 838 µg/mL
